The target in one experiment is T1, human GLP2 receptor (Homo sapiens, UniProt O95838).
T1 construct: expressed in transfected cells; host or cells: HEK cells, BacMam virus transduction
T1 sequence (O95838 1-553): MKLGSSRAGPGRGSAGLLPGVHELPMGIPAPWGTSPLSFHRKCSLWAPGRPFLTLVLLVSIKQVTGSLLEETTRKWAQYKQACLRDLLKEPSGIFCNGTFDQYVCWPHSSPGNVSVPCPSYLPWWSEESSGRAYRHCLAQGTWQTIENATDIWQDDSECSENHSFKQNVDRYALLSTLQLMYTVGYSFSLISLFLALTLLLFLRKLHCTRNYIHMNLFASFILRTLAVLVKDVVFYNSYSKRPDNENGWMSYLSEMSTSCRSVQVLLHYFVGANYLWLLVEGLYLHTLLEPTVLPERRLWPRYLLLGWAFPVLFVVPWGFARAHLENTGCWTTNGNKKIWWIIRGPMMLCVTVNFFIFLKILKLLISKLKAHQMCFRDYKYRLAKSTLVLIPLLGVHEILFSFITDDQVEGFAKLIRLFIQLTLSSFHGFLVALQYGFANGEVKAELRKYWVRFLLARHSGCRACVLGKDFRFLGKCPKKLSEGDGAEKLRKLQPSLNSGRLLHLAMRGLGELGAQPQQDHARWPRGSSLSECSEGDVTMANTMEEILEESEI
Kind of experiment: cAMP accumulation assay, functional agonism of human GLP2 receptor. The experiment is classed as cell-based. Conditions: HEK cells infected with human GLP2 receptor BacMam virus, HTRF cAMP; for Emax: HEK293, read-out: Human GLP-2R agonist cAMP Emax; for EC50: read-out: Human GLP-2R agonist cAMP pEC50 (converted). How it is done: (§1) CAMP production upon agonist stimulation of human GLP2 or GLP1 receptor was assessed utilizing HiRange cAMP kit (Cisbio). In brief, HEK cells were infected with either human GLP2 or GLP1 receptor BacMam virus for 24 hours and frozen for later use in the assay. […] Cells were prepared in the assay buffer (HBSS (Lonza) supplemented with 0.5 mM IBMX (Tocris)). After 45 min incubation at 37° C., the reaction was stopped by addition of the HTRF detection reagents in the lysis buffer provided in the kit.

For another experiment, the target named is T2, human GLP1 receptor (Homo sapiens, UniProt P43220).
T2 construct: expressed in transfected cells; host or cells: HEK cells, BacMam virus transduction
T2 sequence (P43220 24-463): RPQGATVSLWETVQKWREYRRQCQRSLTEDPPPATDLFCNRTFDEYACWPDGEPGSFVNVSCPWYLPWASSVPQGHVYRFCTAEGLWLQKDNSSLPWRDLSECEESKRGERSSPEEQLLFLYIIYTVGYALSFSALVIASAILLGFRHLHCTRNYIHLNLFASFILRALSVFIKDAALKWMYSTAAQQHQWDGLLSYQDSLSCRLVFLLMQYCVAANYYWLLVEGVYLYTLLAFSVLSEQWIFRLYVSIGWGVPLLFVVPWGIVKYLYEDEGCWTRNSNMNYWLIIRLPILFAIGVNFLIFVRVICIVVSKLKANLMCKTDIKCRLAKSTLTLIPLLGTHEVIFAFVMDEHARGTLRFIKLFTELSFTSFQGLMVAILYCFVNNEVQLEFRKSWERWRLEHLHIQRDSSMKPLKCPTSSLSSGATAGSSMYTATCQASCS
The experiment can be described thus: cAMP accumulation assay, functional agonism of human GLP1 receptor. The format is cell-based. Particulars: HEK cells infected with human GLP1 receptor BacMam virus, HTRF cAMP; for Emax: HEK293, read-out: Human GLP-1R agonist cAMP Emax; for EC50: read-out: Human GLP-1R agonist cAMP pEC50 (converted). How it is done: as §1
Background: Cyclic AMP is a second messenger, typically raised through Gs and lowered through Gi signalling.

Molecules are shown by their SMILES. Positions of bridges follow the written chain, without caps; N, C: chain ends. Non-standard residues stand in square brackets, D forms with d. Residues, ends and D or L forms follow the SMILES beside them. *: point of attachment. Malonyl(2,2-Me2,histaminyl) = CC(C)(C(=O)NCCc1cnc[nH]1)C(=O)*; Ala(1H-tetrazol-5-yl) = N[C@@H](Cc1nnn[nH]1)C(=O)O; αMePhe(2-F) = C[C@](N)(Cc1ccccc1F)C(=O)O; αMeL = CC(C)C[C@](C)(N)C(=O)O; Nle = CCCC[C@H](N)C(=O)O; Aib = CC(C)(N)C(=O)O; Alloc = C=CCOC(=O)*

What is called Emax is the maximal effect, on the per cent scale that the assay sets. `CCCC[C@H](NC(=O)[C@H](CCC(=O)O)NC(=O)[C@@H]1CC(=O)NCCCC[C@H](NC(=O)[C@H](CC(=O)O)NC(=O)C(C)(C)NC(=O)[C@@H](N)Cc2c[nH]cn2)C(=O)N[C@@H](CO)C(=O)N[C@@H](Cc2ccccc2)C(=O)N[C@@H](CO)C(=O)N1)C(=O)N[C@H](Cc1ccccc1)C(=O)N[C@H]1CCC(=O)NCCCC[C@@H](C(=O)N[C@@H](CCCCN)C(=O)N[C@@H](C)C(=O)N[C@@H](C)C(=O)NC(C)(C)C(=O)N[C@@H](CC(=O)O)C(=O)N[C@@H](Cc2ccccc2)C(=O)N[C@H](C(=O)N[C@H]2CCC(=O)NCCCC[C@@H](C(=O)N[C@H](C(=O)N[C@@H](CCCCN)C(N)=O)[C@@H](C)O)NC(=O)[C@H]([C@@H](C)CC)NC(=O)[C@H](CC(C)C)NC(=O)[C@H](Cc3c[nH]c4ccccc34)NC2=O)[C@@H](C)CC)NC(=O)[C@H](CC(=O)O)NC(=O)[C@H](CC(C)C)NC(=O)[C@H]([C@@H](C)CC)NC1=O` [Example 5] (H-H[Aib]DKSFSDE[Nle][dF]EILDKKAA[Aib]DFIEWLIKTK-NH2; lactam 4-8, 12-16, 24-28 (inferred); N-terminus and C-terminus assumed): the Emax on human GLP2 receptor is 104%; at human GLP1 receptor it was 92.5%.

As for `CCCC[C@@H]1NC(=O)[C@H](CCC(=O)O)NC(=O)[C@@H](NC(=O)[C@H](CO)NC(=O)[C@H](Cc2ccccc2)NC(=O)[C@H](CO)NC(=O)CNC(=O)[C@H](Cc2nn[nH]n2)NC(=O)C(C)(C)C(=O)NCCc2c[nH]cn2)CCCCNC(=O)C[C@@H](C(=O)N[C@H](C(=O)N[C@@H](CC(C)C)C(=O)N[C@@H](CC(=O)O)C(=O)N[C@H]2CCC(=O)NCCCC[C@@H](C(=O)N[C@@H](CC(=O)O)C(=O)N[C@@H](Cc3ccccc3)C(=O)N[C@H](C(=O)N[C@@H](CC(N)=O)C(=O)N[C@@H](Cc3c[nH]c4ccccc34)C(=O)N[C@@H](CC(C)C)C(=O)N[C@H](C(=O)N[C@@H](CCC(N)=O)C(=O)N[C@H](C(=O)N[C@H]3CCC(=O)NCCCC[C@@H](C(N)=O)NC(=O)[C@H]([C@@H](C)O)NC(=O)[C@H]([C@@H](C)CC)NC3=O)[C@@H](C)O)[C@@H](C)CC)[C@@H](C)CC)NC(=O)C(C)(C)NC(=O)C(C)(C)NC(=O)[C@H](CCCCN)NC2=O)[C@@H](C)CC)NC(=O)[C@@H](Cc2ccccc2)NC1=O` [Example 16] ({Malonyl(2,2-Me2,histaminyl)}-[Ala(1H-tetrazol-5-yl)]GSFSKE[Nle][dF]DILDEK[Aib][Aib]KDFINWLIQTEITK-NH2; lactam 6-10, 14-18, 28-31; C-terminus assumed), the Emax was 104% at human GLP2 receptor and 94.1% at human GLP1 receptor. Besides, the EC50 is 0.251 nM on human GLP2 receptor and 0.631 nM at human GLP1 receptor.

Turning to `C=CCOC(=O)NCCCC[C@@H]1NC(=O)[C@@H](NC(=O)[C@H](CC(=O)O)NC(=O)[C@H](CC(C)C)NC(=O)[C@@H](NC(=O)[C@@H]2CC(=O)NCCCC[C@H](NC(=O)[C@H](CO)NC(=O)[C@H](Cc3ccccc3)NC(=O)[C@H](CO)NC(=O)CNC(=O)[C@H](Cc3nn[nH]n3)NC(=O)C(C)(C)C(=O)NCCc3c[nH]cn3)C(=O)N[C@@H](CCC(=O)O)C(=O)N[C@@H](CCCC)C(=O)N[C@H](Cc3ccccc3)C(=O)N2)[C@@H](C)CC)CCC(=O)NCCCC[C@@H](C(=O)N[C@@H](CC(=O)O)C(=O)N[C@@H](Cc2ccccc2)C(=O)N[C@H](C(=O)N[C@@H](CC(N)=O)C(=O)N[C@@H](Cc2c[nH]c3ccccc23)C(=O)N[C@@H](CC(C)C)C(=O)N[C@H](C(=O)N[C@@H](CCC(N)=O)C(=O)N[C@H](C(=O)N[C@H]2CCC(=O)NCCCC[C@@H](C(N)=O)NC(=O)[C@H]([C@@H](C)O)NC(=O)[C@H]([C@@H](C)CC)NC2=O)[C@@H](C)O)[C@@H](C)CC)[C@@H](C)CC)NC(=O)[C@H](C)NC(=O)[C@H](C)NC1=O` [Example 23] ({Malonyl(2,2-Me2,histaminyl)}-[Ala(1H-tetrazol-5-yl)]GSFSKE[Nle][dF]DILDEK(Alloc)AAKDFINWLIQTEITK-NH2; lactam 6-10, 14-18, 28-31 (inferred); C-terminus assumed), the results for the maximum response (Emax) at human GLP2 receptor and on human GLP1 receptor were 102% and 94.3%, respectively. The results for the EC50 at human GLP2 receptor and on human GLP1 receptor were 0.0251 nM and 0.794 nM, respectively.

In the case of `CCCC[C@@H]1NC(=O)[C@H](CCC(=O)O)NC(=O)[C@@H](NC(=O)[C@H](CO)NC(=O)[C@H](Cc2ccccc2)NC(=O)[C@H](CO)NC(=O)[C@@H](C)NC(=O)[C@H](Cc2nn[nH]n2)NC(=O)C(C)(C)C(=O)NCCc2c[nH]cn2)CCCCNC(=O)C[C@@H](C(=O)N[C@@](C)(CC(C)C)C(=O)N[C@@H](CC(C)C)C(=O)N[C@@H](CC(=O)O)C(=O)N[C@H]2CCC(=O)NCCCC[C@@H](C(=O)N[C@@H](CC(=O)O)C(=O)N[C@@H](Cc3ccccc3)C(=O)N[C@H](C(=O)N[C@@H](CC(N)=O)C(=O)N[C@@H](Cc3c[nH]c4ccccc34)C(=O)N[C@@H](CC(C)C)C(=O)N[C@H](C(=O)N[C@@H](CCC(N)=O)C(=O)N[C@H]3CCC(=O)NCCCC[C@@H](C(N)=O)NC(=O)[C@H]([C@@H](C)O)NC(=O)[C@H]([C@@H](C)CC)NC(=O)[C@H](CCCCN)NC3=O)[C@@H](C)CC)[C@@H](C)CC)NC(=O)[C@H](C)NC(=O)[C@H](C)NC(=O)[C@H](CCCCN)NC2=O)NC(=O)[C@@H](Cc2ccccc2)NC1=O` [Example 24] ({Malonyl(2,2-Me2,histaminyl)}-[Ala(1H-tetrazol-5-yl)][dA]SFSKE[Nle][dF]D[αMeL]LDEKAAKDFINWLIQEKITK-NH2; lactam 6-10, 14-18, 27-31 (inferred); C-terminus assumed), the figures for the Emax on human GLP2 receptor and on human GLP1 receptor were 103% and 96.8%, respectively. For the same molecule, the EC50 is 0.00794 nM at human GLP2 receptor and 0.2 nM at human GLP1 receptor.

In the case of `CCCC[C@@H]1NC(=O)[C@H](CCC(=O)O)NC(=O)[C@@H](NC(=O)[C@H](CO)NC(=O)[C@](C)(Cc2ccccc2F)NC(=O)[C@H](CO)NC(=O)[C@@H](C)NC(=O)[C@H](CC(=O)O)NC(=O)C(C)(C)C(=O)NCCc2c[nH]cn2)CCCCNC(=O)C[C@@H](C(=O)N[C@@](C)(CC(C)C)C(=O)N[C@@H](CC(C)C)C(=O)N[C@@H](CC(=O)O)C(=O)N[C@H]2CCC(=O)NCCCC[C@@H](C(=O)N[C@@H](CC(=O)O)C(=O)N[C@@H](Cc3ccccc3)C(=O)N[C@H](C(=O)N[C@@H](CC(N)=O)C(=O)N[C@@H](Cc3c[nH]c4ccccc34)C(=O)N[C@@H](CC(C)C)C(=O)N[C@H](C(=O)N[C@@H](CCC(N)=O)C(=O)N[C@H]3CCC(=O)NCCCC[C@@H](C(N)=O)NC(=O)[C@H]([C@@H](C)O)NC(=O)[C@H]([C@@H](C)CC)NC(=O)[C@H](CCCCN)NC3=O)[C@@H](C)CC)[C@@H](C)CC)NC(=O)[C@H](C)NC(=O)[C@H](C)NC(=O)[C@H](CCCCN)NC2=O)NC(=O)[C@@H](Cc2ccccc2)NC1=O` [Example 25] ({Malonyl(2,2-Me2,histaminyl)}-D[dA]S[αMePhe(2-F)]SKE[Nle][dF]D[αMeL]LDEKAAKDFINWLIQEKITK-NH2; lactam 6-10, 14-18, 27-31 (inferred); C-terminus assumed), at human GLP2 receptor, the Emax amounted to 103% and the EC50 was 0.0251 nM. Besides, at human GLP1 receptor, the Emax came out at 97.6% and the EC50 was 0.0316 nM.
